{"source": "patent EP4682145A1", "about": "“BENZOHETEROCYCLIC COMPOUND, AND PREPARATION METHOD THEREFOR AND USE THEREOF” (Cascade Pharmaceuticals, Inc., priority 2023, dated 2024)", "key": {"normal C57BL6/J mice": {"test_system": "normal C57BL6/J mice", "test": "Oral glucose tolerance test (OGTT) in normal C57BL6/J mice", "assay_type": "in vivo", "settings": "1 mg/kg gavage, single dose; for AUC 0-120 minutes: blood glucose AUC", "experimental": "Eighteen normal male C57BL6/J mice (8-9 weeks old) were selected and randomly divided into 3 groups based on body weight and blood glucose levels, with 6 mice in each group. On the day of the OGTT, fasting was initiated at 8:30 AM. At 11:30 AM, drug interventions were administered via gavage (vehicle control, compound 14, 1 mg/kg, and compound 169, 1 mg/kg). At 1:30 PM, glucose (2 g/kg) was administered via gavage, while the blank control group received the vehicle control orally (2% DMSO + 15% solutol + 83% DDW solution) at a dosing volume of 10 mL/kg. Blood glucose measurements during the OGTT were taken at the following time points: 0, 15, 30, 60, 90, and 120 minutes after glucose administration.\nBlood glucose levels were measured at 0, 15, 30, 60, and 120 minutes after glucose administration. The area under the curve (AUC) for blood glucose over 120 minutes was calculated. [formula]\n(§1) Note: BG0, BG15, BG30, BG60, BG90, and BG120 represent the blood glucose levels at 0, 15, 30, 60, 90, and 120 minutes after glucose administration, respectively.\n(§2) Data were expressed as mean ± standard deviation. One-way ANOVA was employed for statistical analysis, with p < 0.05 considered statistically significant."}, "[1]": {"test_system": "high-fat diet-induced DIO mice", "test": "Oral glucose tolerance test (OGTT) in high-fat diet-induced DIO mice", "assay_type": "in vivo", "from_the_text": "Normal male C57BL6/J mice (8-9 weeks old) were housed 3-4 per cage and fed a high-fat, high-cholesterol, high-fructose diet (D09100310, Research Diets) for 13 weeks with unrestricted access to water. After 13 weeks of high-fat, high-cholesterol, high-fructose diet feeding, the mice were randomly divided into 5 groups based on body weight and blood glucose levels, with age-matched mice fed a normal diet serving as the normal blank control group, with 6 mice in each group. Under fasting conditions (16 hours), the test compound 169 was administered via oral gavage at different concentrations of 0.03, 0.1, 0.6, and 3 mg/kg, while the normal blank control and model control groups were given the vehicle (15% solutol + 85% DDW solution), with a dosing volume of 10 mL/kg. On the day of administration, blood glucose levels in mice were measured. 2 hours after oral gavage administration, each group was given 2 g/kg of glucose orally. Blood glucose levels were measured at 0, 15, 30, 60, 90, 120, and 150 minutes after glucose administration.\nBlood glucose levels were measured at 0, 15, 30, 60, and 120 minutes after glucose administration. […]\nas §1, §2"}, "C57BL6/J mice": {"test_system": "C57BL6/J mice", "test": "In vivo pharmacodynamic assay for non-alcoholic fatty liver disease (high-fat, high-cholesterol, high-fructose diet mice)", "settings": "for Hepatic Hydroxyproline / Total Liver Hydroxyproline (µg/liver): liver; for ALT (U/L) / AST (U/L): serum", "experimental": "Normal male C57BL6/J mice ([…]) were fed a high-fat, high-cholesterol, high-fructose diet (D09100310, Research Diets) for 20 weeks. Based on body weight and biochemical data, the mice were randomly divided into groups, with 6 mice per group. The compound 169 (0.03, 0.1, and 0.6 mg/kg) was administered via oral gavage. The positive control was MGL3196 (1 mg/kg), and the blank control group consisted of mice of the same strain and age fed a normal diet for the same duration. The blank control and model control groups were given the vehicle (15% solutol + 85% DDW), totaling 6 groups. Administration was performed once daily for 28 days. After overnight fasting, on day 29 at the experimental endpoint, blood was collected from the heart after CO2 euthanasia. Serum ALT and AST biochemical indicators were measured, and liver tissue was harvested for hepatic hydroxyproline content determination.\nBlood was collected using anticoagulant-free tubes, allowed to stand at room temperature for 30 minutes, and then centrifuged at 4000 rpm for 10 minutes to separate serum, which was tested by Dian Diagnostics. Approximately 50 mg of liver tissue was taken from each mouse and tested according to the hydroxyproline assay kit method (Nanjing Jiancheng, Cat. No.: A030-2-1).\nas §2"}, "[2]": {"settings": "0.03 mpk oral gavage once daily for 28 days"}, "[3]": {"settings": "0.1 mpk oral gavage once daily for 28 days"}, "[4]": {"settings": "0.6 mpk oral gavage once daily for 28 days"}}, "note": "Marks after values point to notes of the source that are not given here.", "data": [{"smiles": "COc1ccc(F)c(N2CCC(c3oc4cc([C@@H](CC(=O)O)C5CC5)ccc4c3-c3ccc(C(C)(C)C)cc3)CC2)c1", "note": "[Compound 169]", "values": [{"measurement": "Blood Glucose", "setting": "normal C57BL6/J mice; 0 minutes after glucose (2 g/kg)", "value": "7.88 ± 0.62", "unit": "mmol/L"}, {"measurement": "Blood Glucose", "setting": "normal C57BL6/J mice; 15 minutes after glucose (2 g/kg)", "value": "12.78 ± 1.65", "unit": "mmol/L"}, {"measurement": "Blood Glucose", "setting": "normal C57BL6/J mice; 30 minutes after glucose (2 g/kg)", "value": "9.28 ± 1.32", "unit": "mmol/L"}, {"measurement": "Blood Glucose", "setting": "normal C57BL6/J mice; 60 minutes after glucose (2 g/kg)", "value": "9.28 ± 1.32", "unit": "mmol/L"}, {"measurement": "Blood Glucose", "setting": "normal C57BL6/J mice; 90 minutes after glucose (2 g/kg)", "value": "7.67 ± 2.31", "unit": "mmol/L"}, {"measurement": "Blood Glucose", "setting": "normal C57BL6/J mice; 120 minutes after glucose (2 g/kg)", "value": "7.13 ± 1.25", "unit": "mmol/L"}, {"measurement": "AUC 0-120 minutes", "setting": "normal C57BL6/J mice; 1 mg/kg", "value": "1075±66.01"}, {"measurement": "AUC 0-120 minutes", "setting": "normal C57BL6/J mice; listed as compound 169, 1 mg/kg", "value": "significantly reduced"}, {"measurement": "Blood Glucose", "setting": "[1]; 0.03 mg/kg oral gavage, 0 minutes after glucose (2 g/kg)", "value": "10.78 ± 0.81", "unit": "mmol/L"}, {"measurement": "Blood Glucose", "setting": "[1]; 0.03 mg/kg oral gavage, 15 minutes after glucose", "value": "20.08 ± 2.94", "unit": "mmol/L"}, {"measurement": "Blood Glucose", "setting": "[1]; 0.03 mg/kg oral gavage, 30 minutes after glucose", "value": "16.63 ± 3.66", "unit": "mmol/L"}, {"measurement": "Blood Glucose", "setting": "[1]; 0.03 mg/kg oral gavage, 60 minutes after glucose", "value": "14.62 ± 3.62", "unit": "mmol/L"}, {"measurement": "Blood Glucose", "setting": "[1]; 0.03 mg/kg oral gavage, 90 minutes after glucose", "value": "14.92 ± 2.34", "unit": "mmol/L"}, {"measurement": "Blood Glucose", "setting": "[1]; 0.03 mg/kg oral gavage, 150 minutes after glucose", "value": "10.75 ± 1.1", "unit": "mmol/L"}, {"measurement": "Blood Glucose", "setting": "[1]; 0.1 mg/kg oral gavage, 0 minutes after glucose (2 g/kg)", "value": "9.28 ± 2.89", "unit": "mmol/L"}, {"measurement": "Blood Glucose", "setting": "[1]; 0.1 mg/kg oral gavage, 15 minutes after glucose", "value": "17.65 ± 2.09", "unit": "mmol/L"}, {"measurement": "Blood Glucose", "setting": "[1]; 0.1 mg/kg oral gavage, 30 minutes after glucose", "value": "18.67 ± 4.11", "unit": "mmol/L"}, {"measurement": "Blood Glucose", "setting": "[1]; 0.1 mg/kg oral gavage, 60 minutes after glucose", "value": "13.53 ± 3.03", "unit": "mmol/L"}, {"measurement": "Blood Glucose", "setting": "[1]; 0.1 mg/kg oral gavage, 90 minutes after glucose", "value": "10.27 ± 1.68", "unit": "mmol/L"}, {"measurement": "Blood Glucose", "setting": "[1]; 0.1 mg/kg oral gavage, 120 minutes after glucose", "value": "10.05 ± 1.47", "unit": "mmol/L"}, {"measurement": "Blood Glucose", "setting": "[1]; 0.1 mg/kg oral gavage, 150 minutes after glucose", "value": "10.17 ± 1.68", "unit": "mmol/L"}, {"measurement": "Blood Glucose", "setting": "[1]; 0.6 mg/kg oral gavage, 0 minutes after glucose (2 g/kg)", "value": "9.57 ± 2.06", "unit": "mmol/L"}, {"measurement": "Blood Glucose (mmol/L)", "setting": "[1]; 0.6 mg/kg oral gavage, 15 minutes after glucose", "value": "16.48± 2.15** * mmol/L"}, {"measurement": "Blood Glucose", "setting": "[1]; 0.6 mg/kg oral gavage, 30 minutes after glucose", "value": "12.97 ± 3.71", "unit": "mmol/L"}, {"measurement": "Blood Glucose", "setting": "[1]; 0.6 mg/kg oral gavage, 60 minutes after glucose", "value": "11.98 ± 2.95", "unit": "mmol/L"}, {"measurement": "Blood Glucose", "setting": "[1]; 0.6 mg/kg oral gavage, 90 minutes after glucose", "value": "11.27 ± 2.66", "unit": "mmol/L"}, {"measurement": "Blood Glucose", "setting": "[1]; 0.6 mg/kg oral gavage, 120 minutes after glucose", "value": "9.12 ± 2.14", "unit": "mmol/L"}, {"measurement": "Blood Glucose", "setting": "[1]; 0.6 mg/kg oral gavage, 150 minutes after glucose", "value": "9.52 ± 1.62", "unit": "mmol/L"}, {"measurement": "Blood Glucose", "setting": "[1]; 3 mg/kg oral gavage, 0 minutes after glucose (2 g/kg)", "value": "13.02 ± 2.46", "unit": "mmol/L"}, {"measurement": "Blood Glucose", "setting": "[1]; 3 mg/kg oral gavage, 15 minutes after glucose", "value": "17.22 ± 2.02", "unit": "mmol/L"}, {"measurement": "Blood Glucose", "setting": "[1]; 3 mg/kg oral gavage, 30 minutes after glucose", "value": "14 ± 3.49", "unit": "mmol/L"}, {"measurement": "Blood Glucose", "setting": "[1]; 3 mg/kg oral gavage, 60 minutes after glucose", "value": "10.52 ± 2.23", "unit": "mmol/L"}, {"measurement": "Blood Glucose", "setting": "[1]; 3 mg/kg oral gavage, 90 minutes after glucose", "value": "9.88 ± 0.85", "unit": "mmol/L"}, {"measurement": "Blood Glucose", "setting": "[1]; 3 mg/kg oral gavage, 120 minutes after glucose", "value": "8.3 ± 1.63", "unit": "mmol/L"}, {"measurement": "Blood Glucose (mmol/L)", "setting": "[1]; 3 mg/kg oral gavage, 150 minutes after glucose", "value": "7.37±1.44* * mmol/L"}, {"measurement": "AUC0-150 min", "setting": "[1]; blood glucose AUC, 0.03 mg/kg oral gavage", "value": "2194 ± 132.70", "unit": "mmol·min"}, {"measurement": "AUC0-150 min (mmol*min)", "setting": "[1]; blood glucose AUC, 0.1 mg/kg oral gavage, 0.1 mg/kg", "value": "significantly reduced"}, {"measurement": "AUC0-150 min (mmol*min)", "setting": "[1]; blood glucose AUC, 0.6 mg/kg oral gavage, 0.6 mg/kg", "value": "1725± 119.90 **** mmol*min"}, {"measurement": "AUC0-150 min (mmol*min)", "setting": "[1]; blood glucose AUC, 0.6 mg/kg oral gavage, listed as compound 169, 0.6 mg/kg", "value": "significantly reduced"}, {"measurement": "AUC0-150 min (mmol*min)", "setting": "[1]; blood glucose AUC, 3 mg/kg oral gavage, 3 mg/kg", "value": "1642±91.83 **** mmol*min"}, {"measurement": "AUC0-150 min (mmol*min)", "setting": "[1]; blood glucose AUC, 3 mg/kg oral gavage, listed as compound 169, 3 mg/kg", "value": "significantly reduced"}, {"measurement": "Hepatic Hydroxyproline", "setting": "C57BL6/J mice; [2]", "value": "128.06 ± 55.18", "unit": "µg/g"}, {"measurement": "Total Liver Hydroxyproline (µg/liver)", "setting": "C57BL6/J mice; [2]", "value": "308.56±121.44", "unit": "µg/liver"}, {"measurement": "ALT (U/L)", "setting": "C57BL6/J mice; [2]", "value": "148±81.95", "unit": "U/L"}, {"measurement": "AST (U/L)", "setting": "C57BL6/J mice; [2]", "value": "204.5±79.09", "unit": "U/L"}, {"measurement": "Hepatic Hydroxyproline", "setting": "C57BL6/J mice; [3]", "value": "119.16 ± 39.65", "unit": "µg/g"}, {"measurement": "Total Liver Hydroxyproline (µg/liver)", "setting": "C57BL6/J mice; [3]", "value": "266.4±80.67", "unit": "µg/liver"}, {"measurement": "ALT (U/L)", "setting": "C57BL6/J mice; [3]", "value": "110±37.12", "unit": "U/L"}, {"measurement": "AST (U/L)", "setting": "C57BL6/J mice; [3]", "value": "156±30.59", "unit": "U/L"}, {"measurement": "Hepatic Hydroxyproline", "setting": "C57BL6/J mice; [4]", "value": "85.24 ± 47.63", "unit": "µg/g"}, {"measurement": "Total Liver Hydroxyproline (µg/liver)", "setting": "C57BL6/J mice; [4]", "value": "187.94±110.56", "unit": "µg/liver"}, {"measurement": "ALT (U/L)", "setting": "C57BL6/J mice; [4]", "value": "103.8±35.53", "unit": "U/L"}, {"measurement": "AST (U/L)", "setting": "C57BL6/J mice; [4]", "value": "163.2±42.98", "unit": "U/L"}, {"measurement": "liver protection and liver fibrosis inhibition effects", "setting": "C57BL6/J mice; doses of 0.03, 0.1, and 0.6 mg/kg, compared with the model control", "value": "reduced ALT, AST, and liver hydroxyproline levels"}]}]}
